pIC50: −log10 of the molar value.
How the values were obtained:
[1] = biological target: T1, P2X purinoceptor 7 (Homo sapiens, UniProt Q99572); assay: Antagonist activity at P2X7R in LPS-stimulated human THP1 cells assessed as inhibition of BzATP-induced IL-1beta release preincubated for 30 mins followed by BzATP stimulation and measured after 30 mins by sandwich ELISA
T1 sequence (Q99572 whole entry): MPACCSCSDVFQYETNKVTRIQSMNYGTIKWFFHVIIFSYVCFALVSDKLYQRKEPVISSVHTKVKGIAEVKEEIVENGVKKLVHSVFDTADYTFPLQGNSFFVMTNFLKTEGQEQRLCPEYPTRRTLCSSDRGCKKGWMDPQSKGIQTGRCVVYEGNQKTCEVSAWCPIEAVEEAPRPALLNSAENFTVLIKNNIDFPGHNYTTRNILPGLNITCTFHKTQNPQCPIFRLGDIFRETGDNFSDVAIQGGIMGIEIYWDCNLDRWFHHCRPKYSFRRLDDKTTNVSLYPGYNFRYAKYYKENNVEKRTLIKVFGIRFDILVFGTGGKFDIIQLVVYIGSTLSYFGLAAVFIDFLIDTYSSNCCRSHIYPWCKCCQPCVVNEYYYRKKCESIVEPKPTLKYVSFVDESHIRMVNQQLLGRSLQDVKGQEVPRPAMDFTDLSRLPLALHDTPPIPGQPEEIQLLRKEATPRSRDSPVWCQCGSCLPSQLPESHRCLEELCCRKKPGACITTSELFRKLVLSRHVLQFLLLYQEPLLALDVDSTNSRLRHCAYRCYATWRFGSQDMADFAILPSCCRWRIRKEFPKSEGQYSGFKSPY

[2] = biological target: T1, P2X purinoceptor 7; assay: Antagonist activity at human P2X7 receptor expressed in HEK293 cells assessed as inhibition of BzATP-induced YO PRO dye uptake preincubated for 20 mins followed by YO PRO dye and BzATP addition measured after 30 mins by fluorescence assay; type: cell-based
[3] = test system: MDR; assay: Efflux ratio of apparent permeability in MDCK cells expressing MDR; type: ADME, cell-based, Canis lupus familiaris; settings: dog, MDCK-MDR1
[4] = Intrinsic clearance in rat liver microsomes; type: ADME, Microsome; settings: read-out: CLH
[5] = Intrinsic clearance in human liver microsomes; type: ADME, Microsome; settings: read-out: CLH
[6] = test system: MDR; assay: Apparent permeability across apical to basolateral side in MDCK cells expressing MDR; type: ADME, cell-based, Canis lupus familiaris; settings: dog, MDCK-MDR1
[7] = biological target: T2, P2X purinoceptor 7 (Mus musculus, UniProt Q9Z1M0); assay: Antagonist activity at mouse P2X7 receptor assessed as inhibition of BzATP-induced YO PRO dye uptake preincubated for 20 mins followed by YO PRO dye and BzATP addition measured after 30 mins by fluorescence assay
T2 sequence (Q9Z1M0 whole entry): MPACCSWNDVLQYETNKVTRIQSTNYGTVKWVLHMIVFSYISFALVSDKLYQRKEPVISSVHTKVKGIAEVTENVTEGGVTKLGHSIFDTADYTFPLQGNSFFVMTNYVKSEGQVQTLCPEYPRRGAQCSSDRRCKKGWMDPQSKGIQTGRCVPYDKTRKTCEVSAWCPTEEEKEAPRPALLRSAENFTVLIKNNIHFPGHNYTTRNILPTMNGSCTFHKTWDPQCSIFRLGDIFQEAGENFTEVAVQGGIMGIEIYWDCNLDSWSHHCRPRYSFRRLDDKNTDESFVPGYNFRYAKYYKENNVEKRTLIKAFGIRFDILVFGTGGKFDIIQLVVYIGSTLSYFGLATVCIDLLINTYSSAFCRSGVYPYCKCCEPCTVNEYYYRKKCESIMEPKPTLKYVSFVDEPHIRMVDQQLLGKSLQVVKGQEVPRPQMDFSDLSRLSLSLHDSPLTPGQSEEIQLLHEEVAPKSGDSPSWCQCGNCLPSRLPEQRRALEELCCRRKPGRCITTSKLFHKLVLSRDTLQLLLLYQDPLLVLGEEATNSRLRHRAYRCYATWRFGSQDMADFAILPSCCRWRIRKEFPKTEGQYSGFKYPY

[8] = Intrinsic clearance in mouse liver microsomes; type: ADME, Microsome; settings: read-out: CLH
[9] = biological target: T3, P2X purinoceptor 7 (Rattus norvegicus, UniProt Q64663); assay: Antagonist activity at rat P2X7 receptor assessed as inhibition of BzATP-induced YO PRO dye uptake preincubated for 20 mins followed by YO PRO dye and BzATP addition measured after 30 mins by fluorescence assay
T3 sequence (Q64663 whole entry): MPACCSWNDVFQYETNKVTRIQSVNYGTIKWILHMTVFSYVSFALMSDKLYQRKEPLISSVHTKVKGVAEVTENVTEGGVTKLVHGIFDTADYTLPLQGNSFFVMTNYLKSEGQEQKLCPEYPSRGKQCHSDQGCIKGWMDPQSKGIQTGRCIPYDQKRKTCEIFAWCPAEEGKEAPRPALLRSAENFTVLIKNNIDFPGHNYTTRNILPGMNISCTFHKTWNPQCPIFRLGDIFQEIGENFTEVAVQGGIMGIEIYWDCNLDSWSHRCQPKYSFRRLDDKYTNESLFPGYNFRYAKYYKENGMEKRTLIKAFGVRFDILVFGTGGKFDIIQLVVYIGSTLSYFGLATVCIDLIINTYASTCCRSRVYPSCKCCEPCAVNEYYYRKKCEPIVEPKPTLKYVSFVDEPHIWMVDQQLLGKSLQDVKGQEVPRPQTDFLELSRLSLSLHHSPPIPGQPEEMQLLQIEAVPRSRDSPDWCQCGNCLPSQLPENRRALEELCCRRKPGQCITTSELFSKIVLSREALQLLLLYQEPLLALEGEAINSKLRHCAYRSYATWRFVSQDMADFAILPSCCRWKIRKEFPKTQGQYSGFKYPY

| Structure (SMILES) | pIC50 [1] | pIC50 [2] | efflux ratio [3] | microsomal CLint [4] [µL/min/mg] | microsomal CLint [5] [µL/min/mg] | Papp A→B [6] [×10⁻⁶ cm/s] | pIC50 [7] | microsomal CLint [8] [µL/min/mg] | pIC50 [9] |
| --- | --- | --- | --- | --- | --- | --- | --- | --- | --- |
| COCCNc1ccc2c(C(=O)NCC3CCC(F)(F)CC3)c(Cl)ccc2n1 | 6.74 | 7.05 | – | – | – | – | – | – | – |
| O=C(NCC1CCC(F)(F)CC1)c1c(Cl)ccc2ncccc12 | 6.66 | 6.64 | – | – | – | – | – | – | – |
| O=C(NCC1CCCC(F)(F)C1)c1c(Cl)ccc2nc(N3CC[C@@H](F)C3)ccc12 (stereo partly drawn) | 6.93 | 8.31 | 1.8 | 102 | 41 | 16.4 | 5.70 | 102 | – |
| COCCOc1ccc2c(C(=O)NCC3CCC(F)(F)CC3)c(Cl)ccc2n1 | 6.85 | 7.60 | – | – | – | – | – | – | – |
| O=C(NCC1CCC(F)(F)CC1)c1c(Cl)ccc2nc(C3CCCC3)ccc12 | 6.80 | 7.03 | – | – | – | – | – | – | – |

These reach a higher pIC50 [1]. Values come first.

| pIC50 [1] | pIC50 [2] | efflux ratio [3] | microsomal CLint [4] [µL/min/mg] | microsomal CLint [5] [µL/min/mg] | Papp A→B [6] [×10⁻⁶ cm/s] | pIC50 [7] | microsomal CLint [8] [µL/min/mg] | pIC50 [9] | Structure (SMILES) |
| --- | --- | --- | --- | --- | --- | --- | --- | --- | --- |
| 7.12 | 7.51 | – | – | – | – | – | – | – | CC1(C)OB(C2=CCCC2)OC1(C)C |
| 7.61 | 8.35 | 4.3 | 23 | 21 | 8.9 | 5.85 | 65 | 6.19 | C[C@H]1CCC[C@@](O)(CNC(=O)c2c(Cl)ccc3nc(N4CC[C@@H](F)C4)ccc23)C1 |
| 6.96 to 6.97 | 7.43 | 1.2 | 57 | 87 | 31.8 | – | 49 | – | O=C(NCC1CCC(F)(F)CC1)c1c(Cl)ccc2nc(N3CCCC3)ccc12 |
| 7.05 | 7.44 | – | – | – | – | – | – | – | O=C(NCC1CCC(F)(F)CC1)c1c(Cl)ccc2nc(C3=CCCC3)ccc12 |
| 7.40 | 7.57 | 7.2 | 22 | 45 | 6.2 | – | 50 | – | CN(C)[C@@H]1CCN(c2ccc3c(C(=O)NCC4CCC(F)(F)CC4)c(Cl)ccc3n2)C1 |

Reference: ChEMBL document CHEMBL4340547, “Synthesis and SAR development of quinoline analogs as novel P2X7 receptor antagonists” (Bioorg Med Chem Lett, 2019)
